Data set [1] deals with Female Fischer344 rats or Sprague Dawley (SD) rats. The settings on record: rat, in vivo. The procedure: Animals receiving LY2109761 were dosed by oral gavage once daily for five or seven days. Animals were sacrificed and necropsies performed.
A further data set has as its system non-diseased rat BAL. As to the kind of experiment: TGFβ downstream tonic signaling in rat BAL. The class given is in vivo. An excerpt: Indeed, data presented herein support this notion. […] Preferably, TGFβ antagonists for use in the treatment of such conditions exert their inhibitory activities only towards the disease-induced or disease-associated isoform, while preserving the function of the other isoforms that are normally expressed to mediate tonic signaling in the tissue. […] Alternatively or additionally, agents that target and block integrin-dependent activation of TGFβ may be capable of blocking only a subset of integrins responsible for disease-associated TGFβ1 activation, among numerous integrin types that are expressed by various cell types and play a role in the pathogenesis. Furthermore, even where such antagonists may selectively block integrin-mediated activation of the TGFβ1 isoform, it may be ineffective in blocking TGFβ1 activation triggered by other modes, such as protease-dependent activation. By contrast, the isoform-specific, inhibitors of TGFβ1 such as those described herein are aimed to prevent the activation step of TGFβ1 regardless of the particular mode of activation, while maintaining isoform selectivity. Preferably, the isoform-selective activation inhibitor of TGFβ1 is Ab46 or an engineered molecule comprising an antigen-binding fragment thereof.

Another data set deals with Human. Conditions: in vivo; cited from earlier work.

Regarding `c1ccc(-c2nn3c(c2-c2ccnc4cc(OCCN5CCOCC5)ccc24)CCC3)nc1` [LY2109761], the bone findings entry in data set [1] is “macroscopic abnormally shaped sternum and microscopic increased thickness of the hypertrophic zone in the endplate of the sternum and physis of the femur and tibia”. Moreover, the “TGFβ downstream tonic signaling” value in the data set with non-diseased rat BAL is “inhibit TGFβ downstream tonic signaling”.
With “GC1008: human analog of 1D11, pan-TGFβ antibody”, in the data set with Human, the Half-life entry is on record as “Half-life: 21.7 d”; the “previously reported adverse events in human patients” value was “leukocytosis (grade 3), fatigue (grade 3), hypoxia (grade 3), asystole (grade 5), leukopenia (grade 1), recurrent, transient, tender erythematous, nodular skin lesions, suppurative dermatitis, and herpes zoster”.

Source of the values: patent US20230057012A1, “TGFB INHIBITORS AND USE THEREOF” (Scholar Rock, Inc., priority 2020, published 2023).
